According to ChEMBL document CHEMBL1201862, “PubChem BioAssay data set” (2004):
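Exposure lasted 48 hours, with cells grown in 96-well plates and compounds tested at five concentrations. Abbreviation: GI50, concentration required for 50% inhibition of growth.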 Calls of active or inactive are those of the source. Cut-off read from the data, not from the text of the source: active = GI50 up to about 1.1 µM and inactive = higher.

Tests used:
Test in all cases: DTP human tumour cell line panel, 48 h
786-0 = system: 786-0
A549 = system: A549
COLO 205 = system: COLO 205
DMS-273 = system: DMS-273
EKVX = system: EKVX
HL-60 = system: HL-60
HT-29 = system: HT-29
Malme-3M = system: Malme-3M
NCI-H226 = system: NCI-H226
NCI-H460 = system: NCI-H460
OVCAR-3 = system: OVCAR-3
OVCAR-5 = system: OVCAR-5
SK-MEL-28 = system: SK-MEL-28
SW-620 = system: SW-620
UO-31 = system: UO-31
SNB-75 = system: SNB-75
BT-549 = system: BT-549
MCF7 = system: MCF7
MDA-MB-231 = system: MDA-MB-231
NCI/ADR-RES = system: NCI/ADR-RES

Measured: GI50

Cc1cnc2c(C)ccc([N+](=O)[O-])c2c1NCCCN(C)C
inactive: 786-0 > 100 µM | A549 > 100 µM | COLO 205 > 100 µM | DMS-273 > 100 µM | EKVX > 100 µM | HL-60 > 100 µM | HT-29 > 100 µM | Malme-3M 73.6 µM | NCI-H226 > 100 µM | NCI-H460 > 100 µM | OVCAR-3 > 100 µM | OVCAR-5 > 100 µM | SK-MEL-28 > 100 µM | SW-620 > 100 µM | UO-31 > 100 µM

CC(=O)c1ccc(NC(=O)C(=O)C(C(=O)c2ccc(Cl)c(Cl)c2)C2OC(=O)c3ccccc32)cc1 (centres undefined)
inactive: 786-0 16.1 µM | A549 21.4 µM | COLO 205 15.1 µM | DMS-273 22.1 µM | EKVX 40 µM | HL-60 28.1 µM | HT-29 25.3 µM | Malme-3M 5.97 µM | NCI-H226 5.15 µM | NCI-H460 13.2 µM | OVCAR-3 16.9 µM | OVCAR-5 21.5 µM | SW-620 21.2 µM | UO-31 24.4 µM

Cc1nc2c(o1)/C(=N\c1ccccc1)c1ccccc1C2=O
inactive: 786-0 15.2 µM | A549 20.3 µM | COLO 205 15.8 µM | DMS-273 10.2 µM | EKVX 14.2 µM | HL-60 3.3 µM | HT-29 18.7 µM | Malme-3M 3.98 µM | NCI-H460 12.6 µM | OVCAR-3 2.54 µM | OVCAR-5 18.5 µM | SNB-75 10.9 µM | SW-620 10.7 µM | UO-31 7.89 µM

O=S(=O)(O)c1ccc(/N=N/c2ccc(/N=N/c3c(O)ccc4ccccc34)c(S(=O)(=O)O)c2)cc1
inactive: 786-0 > 100 µM | A549 > 100 µM | BT-549 > 100 µM | COLO 205 > 100 µM | EKVX > 100 µM | HL-60 > 100 µM | HT-29 > 100 µM | MCF7 > 100 µM | MDA-MB-231 > 100 µM | Malme-3M > 100 µM | NCI-H226 > 100 µM | NCI-H460 > 100 µM | NCI/ADR-RES > 100 µM | OVCAR-3 > 100 µM | OVCAR-5 > 100 µM | SK-MEL-28 > 100 µM | SNB-75 62.1 µM | SW-620 > 100 µM | UO-31 > 100 µM

Nc1nccc(NCC2(CO)CCC2)n1
inactive: 786-0 > 100 µM | A549 > 100 µM | BT-549 > 100 µM | COLO 205 > 100 µM | EKVX > 100 µM | HL-60 > 100 µM | HT-29 > 100 µM | MCF7 68.9 µM | MDA-MB-231 > 100 µM | Malme-3M > 100 µM | NCI-H226 > 100 µM | NCI-H460 > 100 µM | NCI/ADR-RES > 100 µM | OVCAR-3 > 100 µM | OVCAR-5 > 100 µM | SK-MEL-28 > 100 µM | SNB-75 > 100 µM | SW-620 > 100 µM | UO-31 > 100 µM

CC(=O)c1cccc(NC(=O)C(=O)Nn2c(N)nnc2N)c1
inactive: 786-0 > 100 µM | A549 > 100 µM | COLO 205 > 100 µM | DMS-273 > 100 µM | EKVX > 100 µM | HL-60 > 100 µM | HT-29 > 100 µM | Malme-3M > 100 µM | NCI-H226 > 100 µM | NCI-H460 > 100 µM | OVCAR-5 > 100 µM | SK-MEL-28 > 100 µM | SNB-75 > 100 µM | SW-620 > 100 µM | UO-31 > 100 µM

COc1ccc(/C=C/c2cc(O)cc(OC)c2)cc1
inactive: 786-0 > 100 µM | A549 97.3 µM | BT-549 22.9 µM | COLO 205 > 100 µM | EKVX 55.3 µM | HL-60 79.6 µM | HT-29 > 100 µM | MCF7 > 100 µM | MDA-MB-231 27.8 µM | Malme-3M 86.3 µM | NCI-H226 > 100 µM | NCI-H460 84.5 µM | NCI/ADR-RES > 100 µM | OVCAR-3 > 100 µM | OVCAR-5 > 100 µM | SK-MEL-28 > 100 µM | SNB-75 > 100 µM | SW-620 > 100 µM | UO-31 > 100 µM

Cc1ccc2c(n1)C(=O)c1ccccc1C2=O
inactive: 786-0 27.6 µM | A549 21.2 µM | BT-549 32.4 µM | COLO 205 16.9 µM | EKVX 27.5 µM | HL-60 15.4 µM | HT-29 23.5 µM | MCF7 17.3 µM | MDA-MB-231 23.3 µM | Malme-3M 9.35 µM | NCI-H226 38 µM | NCI-H460 15.8 µM | NCI/ADR-RES 24.4 µM | OVCAR-3 3.53 µM | OVCAR-5 21.9 µM | SK-MEL-28 51.5 µM | SNB-75 29.8 µM | SW-620 31.7 µM | UO-31 32.5 µM
